Results reported in PubChem BioAssay (NCI).
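Five concentrations, 48 hours, 96-well plates. At the GI50, growth is halved. TGI: total growth inhibition.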

What was measured:
Experiment in all cases: NCI anticancer screen, dose series, 48 h
SW-620 colon = tested on: SW-620 colon
HOP-62 NSCLC = tested on: HOP-62 NSCLC
M14 melanoma = tested on: M14 melanoma
UACC-257 melanoma = tested on: UACC-257 melanoma
SK-MEL-5 melanoma = tested on: SK-MEL-5 melanoma
786-0 renal = tested on: 786-0 renal
CAKI-1 renal = tested on: CAKI-1 renal
OVCAR-4 ovarian = tested on: OVCAR-4 ovarian
OVCAR-5 ovarian = tested on: OVCAR-5 ovarian
HOP-92 NSCLC = tested on: HOP-92 NSCLC

Row | Structure (SMILES) | GI50 (SW-620 colon) | TGI (SW-620 colon) | GI50 (HOP-62 NSCLC) | TGI (HOP-62 NSCLC) | GI50 (M14 melanoma) | TGI (M14 melanoma) | TGI (UACC-257 melanoma) | TGI (SK-MEL-5 melanoma) | GI50 (786-0 renal) | TGI (786-0 renal) | GI50 (CAKI-1 renal) | TGI (CAKI-1 renal) | TGI (OVCAR-4 ovarian) | TGI (OVCAR-5 ovarian) | GI50 (OVCAR-5 ovarian) | GI50 (HOP-92 NSCLC) | TGI (HOP-92 NSCLC) | GI50 (UACC-257 melanoma) | GI50 (SK-MEL-5 melanoma) | GI50 (OVCAR-4 ovarian)
1 | CC(=O)Nc1ccc(/C=C/C(=O)c2sc(-n3nc(-c4ccccc4)cc3-c3ccccc3)nc2C)cc1 | > 100 µM | > 100 µM | > 100 µM | > 100 µM | > 100 µM | > 100 µM | > 100 µM | > 100 µM | > 100 µM | > 100 µM | > 100 µM | > 100 µM | > 100 µM |  |  |  |  |  |  | 
2 | O=C1N(c2ccccc2)C2(O)C(=O)c3ccccc3C2(O)N1c1ccccc1 (stereo not drawn) |  | > 100 µM |  | > 100 µM |  | > 100 µM | > 100 µM | > 100 µM |  | > 100 µM |  | > 100 µM | > 100 µM | > 100 µM |  |  |  |  |  | 
3 | O=C(CNC(=O)c1cccc2ccccc12)Nc1ccccc1Oc1ccc(O)cc1 | 0.911 µM | > 25 µM | 1.35 µM | > 25 µM | 0.698 µM | > 25 µM | > 25 µM | > 25 µM | 1.04 µM | > 25 µM |  |  | > 25 µM | > 25 µM | 6.3 µM | > 25 µM | > 25 µM | > 25 µM | 0.846 µM | 2.8 µM
4 | COc1cc(Br)c(C2OCCCO2)cc1OCc1ccccc1 |  | > 100 µM |  | > 100 µM |  | > 100 µM |  | > 100 µM |  | > 100 µM |  |  | > 100 µM | > 100 µM |  |  | 64.3 µM |  |  | 
5 | COc1cc(-c2nn(-c3cccc(NC(=O)NCCNC(=O)c4ccccc4)c3)cc2-c2ccncc2)ccc1Cl | 0.824 µM | > 100 µM | 3.95 µM | > 100 µM | 2.88 µM | > 100 µM | 21.1 µM | 4.06 µM | 1.94 µM | 5.37 µM |  |  | > 100 µM | > 100 µM | 3.78 µM | 2.63 µM | > 100 µM | 3.96 µM | 1.55 µM | 3.03 µM
6 | O=c1ccn([C@@H]2C[C@H](CO)CS(=O)C2)c(=O)[nH]1 (stereo partly drawn) |  | > 100 µM |  | > 100 µM |  | > 100 µM | > 100 µM | > 100 µM |  | > 100 µM |  | > 100 µM | > 100 µM |  |  |  | > 100 µM |  |  | 
7 | CC(C)CC(=O)O[C@H]1C(=O)O[C@@H]2C[C@H]3[C@H](C)C(=O)C(O[C@@H]4O[C@H](CO)[C@@H](O)[C@H](O)[C@H]4O)=C[C@]3(C)[C@H]3[C@@H](O)[C@H](O)[C@]4(C(=O)O)OC[C@]32[C@@H]14 | > 100 µM | > 100 µM | 44.7 µM | > 100 µM |  | > 100 µM | > 100 µM | > 100 µM | > 100 µM | > 100 µM |  |  |  | > 100 µM |  | 37 µM | > 100 µM | > 100 µM | 28.4 µM | 
8 | Cc1ccc(CNc2ccc(Cl)cc2NCc2ccc(C)c(O)c2)cc1O | 8.22 µM | 16.8 µM | 8.85 µM | 16.8 µM | 5.78 µM | 12.6 µM | 15.6 µM |  | 8.27 µM | 15.4 µM | 7.39 µM | 14 µM | 14.4 µM | 16.2 µM | 8.32 µM | 6.91 µM | 14.2 µM | 8.12 µM |  | 6.63 µM
9 | CC(=O)O[C@@H]1[C@H]2O[C@H]2[C@H]2O[C@@]2(COC(=O)c2ccccc2)[C@H]1OC(C)=O |  | > 100 µM |  |  |  | > 100 µM | > 100 µM | > 100 µM |  | > 100 µM |  | > 100 µM | > 100 µM | > 100 µM |  |  | > 100 µM |  |  | 
10 | COc1ccc2c(c1)c(-c1nc(-c3cn(C)c4ncccc34)cs1)cn2CCCCN1CCCCC1 | 1.62 µM | 2.99 µM |  |  |  |  |  | 3.08 µM | 1.61 µM | 3.06 µM |  |  | 3.39 µM | 3.08 µM | 1.65 µM | 1.38 µM | 2.76 µM |  | 1.71 µM | 1.83 µM
11 | BrC(/C=N/Nc1nnc(-c2ccccc2)c(-c2ccccc2)n1)C(Br)c1ccccc1 (stereo not drawn) |  | > 100 µM |  | 92.2 µM |  | 51.8 µM | > 100 µM | 57.9 µM |  | > 100 µM |  | > 100 µM |  | > 100 µM |  |  | 64.5 µM |  |  | 
12 | CSc1cnc2ccccc2c1Sc1cn(C)c2ccccc2c1=O |  | > 100 µM |  | 57.3 µM |  | > 100 µM | > 100 µM | > 100 µM |  | > 100 µM |  |  | > 100 µM | > 100 µM |  |  | 67 µM |  |  | 
13 | CCOc1ccc(/C=C/C(=O)c2sc(NNC(C)=O)nc2C)cc1 |  | > 100 µM |  | > 100 µM |  |  | > 100 µM | > 100 µM |  | > 100 µM |  | > 100 µM |  | > 100 µM |  |  | > 100 µM |  |  | 
14 | Cc1[nH]n(C(=O)Cc2ccccc2)c(=O)c1/C=C1\C(=O)C=Cc2ccccc21 |  | > 100 µM |  | > 100 µM |  |  | > 100 µM | > 100 µM |  | > 100 µM |  | > 100 µM | > 100 µM | > 100 µM |  |  |  |  |  | 
15 | Cc1ccccc1C1N=C2Oc3ccccc3C=C2C(=O)N1 (stereo not drawn) | 4.74 µM | > 100 µM | 3.39 µM | > 100 µM | 0.826 µM | 7.66 µM | > 100 µM | > 100 µM | 14.1 µM | > 100 µM | 5.46 µM | > 100 µM | > 100 µM | > 100 µM | 2.51 µM |  |  | > 100 µM | 0.674 µM | 11.8 µM
16 | N/C(=N\O)c1cn(C2OC(CO)C(O)C2O)c2ncnc(N)c12 (stereo not drawn) | 0.0883 µM |  | 0.468 µM | > 68.7 µM | 0.108 µM | 0.776 µM | 0.705 µM | 0.356 µM | 0.374 µM | > 100 µM | 0.132 µM | 13.1 µM | 4.05 µM | > 40.5 µM | 0.507 µM |  |  | 0.177 µM | 0.183 µM | 0.177 µM
17 | O=C(/C=C/c1c[nH]c2ccccc12)c1ccccc1O |  | 59.7 µM |  | 28.1 µM |  | 27 µM | 31.5 µM |  |  | 25.5 µM |  |  | 27 µM | 28.8 µM |  |  | 17.1 µM |  |  | 
18 | COc1cc(CC2c3cc(OC)c(OC)cc3CCN2C)c(C(=O)O)cc1OC (stereo not drawn) |  | > 100 µM |  | > 100 µM |  | > 100 µM | > 100 µM | > 100 µM |  | > 100 µM |  |  |  | > 100 µM |  |  | > 100 µM |  |  | 
